Test results: PubChem BioAssay AID330 (DTP/NCI, 2004)
Where “and” joins values, the source holds several entries; their conditions need not be identical. Identical values can stand only once. Inconclusive results and toxic doses are left out. Rule for the calls: active = survival T/C of 150% or more; inactive = T/C below 125% in these data.

System: P388 leukemia ip, CD2F1 mice, survival T/C
Assay: NCI In Vivo Anticancer Drug Screen. Data for tumor model P388 Leukemia (intraperitoneal) in CD2F1 (CDF1) mice
Details: endpoint: median survival time, higher = longer survival
Method in brief: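 Mice carrying the transplanted tumor received test compound or vehicle. Survival was recorded in each group, and the value is the treated-group measurement divided by that of the vehicle-treated control group.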

[1] = dose: 60.0 mg/kg/injection, schedule: Q01DX005 (ip), vehicle: saline
[2] = dose: 15.0 mg/kg/injection, schedule: Q01DX005 (ip), vehicle: saline with Tween-80
[3] = dose: 120.0 mg/kg/injection, schedule: Q01DX005 (ip), vehicle: saline with Tween-80
[4] = dose: 240.0 mg/kg/injection, schedule: Q01DX005 (ip), vehicle: saline with Tween-80
[5] = dose: 100.0 mg/kg/injection, schedule: Q01DX009 (ip), vehicle: Klucel (hydroxypropylcellulose) (HPC)
[6] = dose: 200.0 mg/kg/injection, schedule: Q01DX009 (ip), vehicle: Klucel (hydroxypropylcellulose) (HPC)
[7] = dose: 50.0 mg/kg/injection, schedule: Q01DX009 (ip), vehicle: saline
[8] = dose: 50.0 mg/kg/injection, schedule: Q01DX009 (ip), vehicle: Klucel (hydroxypropylcellulose) (HPC)

Measured: T/C

O=C1NC(=O)C([N+](=O)[O-])C(=O)N1
inactive: dose: 25.0 mg/kg/injection, schedule: Q01DX001 (ip), vehicle: saline 100 % of control | dose: 50.0 mg/kg/injection, schedule: Q01DX001 (ip), vehicle: saline 108 % of control

CCOC(=O)C1=C(c2ccccc2)Nc2ccccc2[S+]1C (centres undefined)
inactive: dose: 15.0 mg/kg/injection, schedule: Q01DX005 (ip), vehicle: saline 99 % of control | dose: 30.0 mg/kg/injection, schedule: Q01DX005 (ip), vehicle: saline 98 % of control | [1] 98 % of control and 96 % of control

CC[N+](CC)=c1ccc2nc3c(cc(Nc4ccccc4)c4ccccc43)oc-2c1.[Cl][Zn][Cl]
inactive: dose: 60.0 mg/kg/injection, schedule: Q01DX005 (ip), vehicle: Klucel (hydroxypropylcellulose) (HPC) 98 % of control | dose: 120.0 mg/kg/injection, schedule: Q01DX005 (ip), vehicle: Klucel (hydroxypropylcellulose) (HPC) 107 % of control

Nc1ccc2nc[nH]c(=O)c2c1
inactive: dose: 3.0 mg/kg/injection, schedule: Q01DX005 (ip), vehicle: Klucel (hydroxypropylcellulose) (HPC) 96 % of control | dose: 6.25 mg/kg/injection, schedule: Q01DX005 (ip), vehicle: Klucel (hydroxypropylcellulose) (HPC) 95 % of control | dose: 12.0 mg/kg/injection, schedule: Q01DX005 (ip), vehicle: Klucel (hydroxypropylcellulose) (HPC) 101 % of control | dose: 12.5 mg/kg/injection, schedule: Q01DX005 (ip), vehicle: Klucel (hydroxypropylcellulose) (HPC) 100 % of control | dose: 25.0 mg/kg/injection, schedule: Q01DX005 (ip), vehicle: Klucel (hydroxypropylcellulose) (HPC) 111 % of control

CCN(CC)c1c(C)c(-c2ccccc2)n[n+]([O-])c1-c1ccccc1
inactive: dose: 100.0 mg/kg/injection, schedule: Q01DX001 (ip), vehicle: Klucel (hydroxypropylcellulose) (HPC) 104 % of control | dose: 200.0 mg/kg/injection, schedule: Q01DX001 (ip), vehicle: Klucel (hydroxypropylcellulose) (HPC) 107 % of control | dose: 400.0 mg/kg/injection, schedule: Q01DX001 (ip), vehicle: Klucel (hydroxypropylcellulose) (HPC) 104 % of control

CN(C)CCCn1ncc(Sc2cc([N+](=O)[O-])ccc2N)c(Cl)c1=O
inactive: [2] 95 % of control | dose: 30.0 mg/kg/injection, schedule: Q01DX005 (ip), vehicle: saline with Tween-80 94 % of control | dose: 60.0 mg/kg/injection, schedule: Q01DX005 (ip), vehicle: saline with Tween-80 99 % of control and 107 % of control and 94 % of control | [3] 93 % of control | [4] 89 % of control

COc1cccc2c1C(=O)c1c(O)c3c(c(O)c1C2=O)C[C@@](O)(/C(CO)=N/NS(=O)(=O)c1ccc(C)cc1)C[C@@H]3OC1CC(N)C(O)C(C)O1 (some centres undefined)
inactive: dose: 0.2 mg/kg/injection, schedule: Q01DX009 (ip), vehicle: water 105 % of control | dose: 0.39 mg/kg/injection, schedule: Q01DX009 (ip), vehicle: water 112 % of control | dose: 0.78 mg/kg/injection, schedule: Q01DX009 (ip), vehicle: water 94 % of control | dose: 1.56 mg/kg/injection, schedule: Q01DX009 (ip), vehicle: water 116 % of control and 118 % of control

CCOC(=O)Cc1ccccn1
inactive: [5] 109 % of control | [6] 110 % of control | dose: 400.0 mg/kg/injection, schedule: Q01DX009 (ip), vehicle: Klucel (hydroxypropylcellulose) (HPC) 119 % of control

[Cl][Rh][Cl].[NH-]c1nc(-c2ccccc2)cs1.[NH-]c1nc(-c2ccccc2)cs1.[NH-]c1nc(-c2ccccc2)cs1.[NH-]c1nc(-c2ccccc2)cs1
inactive: dose: 100.0 mg/kg/injection, schedule: Q01DX001 (ip), vehicle: DMSO 97 % of control | dose: 200.0 mg/kg/injection, schedule: Q01DX001 (ip), vehicle: DMSO 94 % of control | dose: 400.0 mg/kg/injection, schedule: Q01DX001 (ip), vehicle: DMSO 98 % of control

Cc1cc(=O)oc2c(C)c3occc(=O)c3cc12
inactive: dose: 100.0 mg/kg/injection, schedule: Q01DX001 (ip), vehicle: saline with Tween-80 99 % of control | dose: 200.0 mg/kg/injection, schedule: Q01DX001 (ip), vehicle: saline with Tween-80 90 % of control | dose: 400.0 mg/kg/injection, schedule: Q01DX001 (ip), vehicle: saline with Tween-80 87 % of control

O=S(=O)(c1ccccc1)C(SC(=S)Sc1ccccc1)Sc1ccccc1 (centres undefined)
inactive: dose: 12.5 mg/kg/injection, schedule: Q01DX009 (ip), vehicle: saline 104 % of control | dose: 25.0 mg/kg/injection, schedule: Q01DX009 (ip), vehicle: saline 107 % of control | dose: 50.0 mg/kg/injection, schedule: Q01DX009 (ip), vehicle: saline with Tween-80 114 % of control | [7] 96 % of control

CCOC(=O)CN1CCC2CC1c1c([nH]c3ccccc13)C2c1cc2c(cc1OC)N(C)C1C(O)(C(=O)OC)C(OC(C)=O)C3(CC)C=CCN4CCC21C43 (centres undefined)
inactive: dose: 0.03 mg/kg/injection, schedule: Q04DX003 (ip), vehicle: saline with Tween-80 94 % of control | dose: 0.06 mg/kg/injection, schedule: Q01DX009 (ip), vehicle: Klucel (hydroxypropylcellulose) (HPC) 94 % of control | dose: 0.06 mg/kg/injection, schedule: Q04DX003 (ip), vehicle: saline with Tween-80 92 % of control | dose: 0.13 mg/kg/injection, schedule: Q01DX009 (ip), vehicle: Klucel (hydroxypropylcellulose) (HPC) 93 % of control | dose: 0.13 mg/kg/injection, schedule: Q04DX003 (ip), vehicle: saline with Tween-80 95 % of control | dose: 0.25 mg/kg/injection, schedule: Q04DX003 (ip), vehicle: saline with Tween-80 98 % of control | dose: 0.5 mg/kg/injection, schedule: Q04DX003 (ip), vehicle: saline with Tween-80 112 % of control | dose: 1.0 mg/kg/injection, schedule: Q01DX009 (ip), vehicle: Klucel (hydroxypropylcellulose) (HPC) 90 % of control | dose: 13.0 micrograms/kg/injection, schedule: Q01DX009 (ip), vehicle: Klucel (hydroxypropylcellulose) (HPC) 98 % of control | dose: 25.0 micrograms/kg/injection, schedule: Q01DX009 (ip), vehicle: Klucel (hydroxypropylcellulose) (HPC) 103 % of control | dose: 50.0 micrograms/kg/injection, schedule: Q01DX009 (ip), vehicle: Klucel (hydroxypropylcellulose) (HPC) 94 % of control | dose: 100.0 micrograms/kg/injection, schedule: Q01DX009 (ip), vehicle: Klucel (hydroxypropylcellulose) (HPC) 100 % of control | dose: 200.0 micrograms/kg/injection, schedule: Q01DX009 (ip), vehicle: Klucel (hydroxypropylcellulose) (HPC) 103 % of control

O=C(NNC1=NCCN1Cc1ccccc1)c1cccc(Cl)c1
inactive: [8] 100 % of control | [5] 100 % of control | [6] 100 % of control

O=C(NCCCl)N1CCC(CN=c2cc3n(-c4ccc(Cl)cc4)c4ccccc4nc-3cc2Nc2ccc(Cl)cc2)CC1
inactive: dose: 7.5 mg/kg/injection, schedule: Q01DX005 (ip), vehicle: saline with Tween-80 88 % of control | [2] 88 % of control | [3] 94 % of control | [4] 97 % of control

CSc1nc(C)c(C(=O)CCN2CCN(c3ccccn3)CC2)s1
inactive: [1] 104 % of control | dose: 120.0 mg/kg/injection, schedule: Q01DX005 (ip), vehicle: saline 113 % of control

CCCCC[CH2][Sn]([CH2]C)([CH2]C)[O]C(C)=O
inactive: dose: 0.5 mg/kg/injection, schedule: Q01DX009 (ip), vehicle: saline with Tween-80 109 % of control | dose: 1.0 mg/kg/injection, schedule: Q01DX009 (ip), vehicle: saline with Tween-80 113 % of control | dose: 2.0 mg/kg/injection, schedule: Q01DX009 (ip), vehicle: saline with Tween-80 109 % of control

O=C(C1=C(Nc2ccccc2)CCC1)c1ccccc1
inactive: [7] 116 % of control | dose: 100.0 mg/kg/injection, schedule: Q01DX009 (ip), vehicle: saline 106 % of control | dose: 200.0 mg/kg/injection, schedule: Q01DX009 (ip), vehicle: saline 106 % of control

COc1cc2c(cc1OC)C1CC(CC3CCCCN31)OC(=O)/C=C\c1ccc(O)c-2c1 (centres undefined)
inactive: dose: 25.0 mg/kg/injection, schedule: Q04DX003 (ip), vehicle: saline 105 % of control | dose: 50.0 mg/kg/injection, schedule: Q04DX003 (ip), vehicle: saline 111 % of control | dose: 100.0 mg/kg/injection, schedule: Q04DX003 (ip), vehicle: saline 102 % of control and 86 % of control

CCS[C@@H](C(O)C(O)C(O)C(O)CO)n1cnc2c(Cl)ncnc21 (some centres undefined)
inactive: dose: 50.0 mg/kg/injection, schedule: Q01DX005 (ip), vehicle: saline with Tween-80 98 % of control | dose: 100.0 mg/kg/injection, schedule: Q01DX005 (ip), vehicle: saline with Tween-80 102 % of control | dose: 200.0 mg/kg/injection, schedule: Q01DX005 (ip), vehicle: saline with Tween-80 96 % of control

Cc1cc(=O)n(C)c2ccc(N)cc12
inactive: dose: 25.0 mg/kg/injection, schedule: Q01DX009 (ip), vehicle: Klucel (hydroxypropylcellulose) (HPC) 101 % of control | [8] 100 % of control | [5] 101 % of control
